Experimental data from patent US8962844B2, “1,3,4-oxadiazole and 1,3,4-thiadiazole β-lactamase inhibitors” (priority 2012, dated 2015).
Structures can show the parent of a compound that is named as a salt.

Legend:
[1] = tested on: bacterial strains that express KPC β-lactamases; test: Standard BLI potentiation MIC / synergy MIC (sMIC) assays run in the presence of a β-lactam, KPC expressing strains; type: cell-based; details: more active for at least one KPC strain and/or better spectrum of activity than Avibactam; BLI in combination with a β-lactam
Outline: (§1)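 Isogenic E. coli DH10B carrying cloned β-lactamase genes on pBR322-derived plasmid (blaTEM-1 promoter, tetracycline 25 μg/mL) tested by CLSI broth microdilution in CAMHB. Test compound and β-lactam each diluted and combined; MIC reported in presence of β-lactam.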

[2] = tested on: bacterial strains that express the class D cephalosporinase OXA-15; test: Standard BLI potentiation MIC / synergy MIC (sMIC) assays run in the presence of a β-lactam, OXA-15 expressing strains; type: cell-based, E. coli; details: BLI in combination with a β-lactam; comparison with Avibactam (comparator compound CCC)
Outline: as §1

Structure (SMILES) | activity and/or spectrum of activity against bacterial strains that express KPC β-lactamases, compared with Avibactam [1] | activity against bacterial strains that express the class D cephalosporinase OXA-15, compared with Avibactam [2]
O=C1N2C[C@@H](CC[C@H]2c2nnc([C@@H]3CCNC3)o2)N1OS(=O)(=O)O [Compound 759, (2S,5R)-7-oxo-2-(5-((R)-pyrrolidin-3-yl)-1,3,4-oxadiazol-2-yl)-1,6-diazabicyclo[3.2.1]octan-6-yl hydrogen sulfate] | more active than Avibactam | more active than Avibactam
N[C@@H]1CN[C@H](c2nnc([C@@H]3CC[C@@H]4CN3C(=O)N4OS(=O)(=O)O)o2)C1 [Compound 760, (2S,5R)-2-(5-((2S,4S)-4-aminopyrrolidin-2-yl)-1,3,4-oxadiazol-2-yl)-7-oxo-1,6-diazabicyclo[3.2.1]octan-6-yl hydrogen sulfate] | more active than Avibactam | more active than Avibactam
N[C@H]1CN[C@@H](c2nnc([C@@H]3CC[C@@H]4CN3C(=O)N4OS(=O)(=O)O)o2)C1 [Compound 761, (2S,5R)-2-(5-((2R,4R)-4-aminopyrrolidin-2-yl)-1,3,4-oxadiazol-2-yl)-7-oxo-1,6-diazabicyclo[3.2.1]octan-6-yl hydrogen sulfate] | more active than Avibactam | more active than Avibactam
N[C@H]1CN[C@H](c2nnc([C@@H]3CC[C@@H]4CN3C(=O)N4OS(=O)(=O)O)o2)C1 [Compound 762, (2S,5R)-2-(5-((2S,4R)-4-aminopyrrolidin-2-yl)-1,3,4-oxadiazol-2-yl)-7-oxo-1,6-diazabicyclo[3.2.1]octan-6-yl hydrogen sulfate] | more active than Avibactam | more active than Avibactam
N[C@@H]1CN[C@@H](c2nnc([C@@H]3CC[C@@H]4CN3C(=O)N4OS(=O)(=O)O)o2)C1 [Compound 763, (2S,5R)-2-(5-((2R,4S)-4-aminopyrrolidin-2-yl)-1,3,4-oxadiazol-2-yl)-7-oxo-1,6-diazabicyclo[3.2.1]octan-6-yl hydrogen sulfate] | more active than Avibactam | more active than Avibactam
O=C1N2C[C@@H](CC[C@H]2c2nnc(CC3CCNC3)o2)N1OS(=O)(=O)O (stereo partly drawn) [Compound 764, (2S,5R)-7-oxo-2-(5-(pyrrolidin-3-ylmethyl)-1,3,4-oxadiazol-2-yl)-1,6-diazabicyclo[3.2.1]octan-6-yl hydrogen sulfate] | more active than Avibactam | more active than Avibactam
O=C1N2C[C@@H](CC[C@H]2c2nnc(CN[C@H]3CCNC3)o2)N1OS(=O)(=O)O [Compound 765, (2S,5R)-7-oxo-2-(5-(((S)-pyrrolidin-3-ylamino)methyl)-1,3,4-oxadiazol-2-yl)-1,6-diazabicyclo[3.2.1]octan-6-yl hydrogen sulfate] | more active than Avibactam | more active than Avibactam
O=C1N2C[C@@H](CC[C@H]2c2nnc(CN[C@@H]3CCNC3)o2)N1OS(=O)(=O)O [Compound 766, (2S,5R)-7-oxo-2-(5-(((R)-pyrrolidin-3-ylamino)methyl)-1,3,4-oxadiazol-2-yl)-1,6-diazabicyclo[3.2.1]octan-6-yl hydrogen sulfate] | more active than Avibactam | more active than Avibactam
N=C1NCC(c2nnc([C@@H]3CC[C@@H]4CN3C(=O)N4OS(=O)(=O)O)o2)N1 (stereo partly drawn) [Compound 767, (2S,5R)-2-(5-(2-iminoimidazolidin-4-yl)-1,3,4-oxadiazol-2-yl)-7-oxo-1,6-diazabicyclo[3.2.1]octan-6-yl hydrogen sulfate] | more active than Avibactam | more active than Avibactam
N[C@H]1CC[C@@H](c2nnc([C@@H]3CC[C@@H]4CN3C(=O)N4OS(=O)(=O)O)o2)C1 [Compound 768, (2S,5R)-2-(5-((1R,3S)-3-aminocyclopentyl)-1,3,4-oxadiazol-2-yl)-7-oxo-1,6-diazabicyclo[3.2.1]octan-6-yl hydrogen sulfate] | more active than Avibactam | more active than Avibactam
O=C1N2C[C@@H](CC[C@H]2c2nnc(CCNC3CCNCC3)o2)N1OS(=O)(=O)O [Compound 770, (2S,5R)-7-oxo-2-(5-(2-(piperidin-4-ylamino)ethyl)-1,3,4-oxadiazol-2-yl)-1,6-diazabicyclo[3.2.1]octan-6-yl hydrogen sulfate] | more active than Avibactam | more active than Avibactam
O=C1N2C[C@@H](CC[C@H]2c2nnc(CCCNC3CCNCC3)o2)N1OS(=O)(=O)O [Compound 771, (2S,5R)-7-oxo-2-(5-(3-(piperidin-4-ylamino)propyl)-1,3,4-oxadiazol-2-yl)-1,6-diazabicyclo[3.2.1]octan-6-yl hydrogen sulfate] | more active than Avibactam | more active than Avibactam
O=C1N2C[C@@H](CC[C@H]2c2nnc(CCCCNC3CCNCC3)o2)N1OS(=O)(=O)O [Compound 772, (2S,5R)-7-oxo-2-(5-(4-(piperidin-4-ylamino)butyl)-1,3,4-oxadiazol-2-yl)-1,6-diazabicyclo[3.2.1]octan-6-yl hydrogen sulfate] | more active than Avibactam | more active than Avibactam
NC1CCN(Cc2nnc([C@@H]3CC[C@@H]4CN3C(=O)N4OS(=O)(=O)O)o2)CC1 [Compound 774, (2S,5R)-2-(5-((4-aminopiperidin-1-yl)methyl)-1,3,4-oxadiazol-2-yl)-7-oxo-1,6-diazabicyclo[3.2.1]octan-6-yl hydrogen sulfate] | more active than Avibactam | more active than Avibactam
O=C1N2C[C@@H](CC[C@H]2c2nnc(CCN3CCNCC3)o2)N1OS(=O)(=O)O [Compound 776, (2S,5R)-7-oxo-2-(5-(2-(piperazin-1-yl)ethyl)-1,3,4-oxadiazol-2-yl)-1,6-diazabicyclo[3.2.1]octan-6-yl hydrogen sulfate] | more active than Avibactam | more active than Avibactam
O=C1N2C[C@@H](CC[C@H]2c2nnc(CN3CCNCC3)o2)N1OS(=O)(=O)O [Compound 777, (2S,5R)-7-oxo-2-(5-(piperazin-1-ylmethyl)-1,3,4-oxadiazol-2-yl)-1,6-diazabicyclo[3.2.1]octan-6-yl hydrogen sulfate] | more active than Avibactam | more active than Avibactam
O=C1N2C[C@@H](CC[C@H]2c2nnc([C@H]3CNCCN3)o2)N1OS(=O)(=O)O [Compound 779, (2S,5R)-7-oxo-2-(5-((R)-piperazin-2-yl)-1,3,4-oxadiazol-2-yl)-1,6-diazabicyclo[3.2.1]octan-6-yl hydrogen sulfate] | more active than Avibactam | more active than Avibactam
C[n+]1ccc(-c2nnc([C@@H]3CC[C@@H]4CN3C(=O)N4OS(=O)(=O)[O-])o2)cc1 [Compound 782, (2S,5R)-2-(5-(1-methylpyridin-1-ium-4-yl)-1,3,4-oxadiazol-2-yl)-7-oxo-1,6-diazabicyclo[3.2.1]octan-6-yl sulfate] | more active than Avibactam | more active than Avibactam
N[C@H]1C[C@H](c2nnc([C@@H]3CC[C@@H]4CN3C(=O)N4OS(=O)(=O)O)s2)C1 [Compound 783, (2S,5R)-2-(5-((1r,3S)-3-aminocyclobutyl)-1,3,4-thiadiazol-2-yl)-7-oxo-1,6-diazabicyclo[3.2.1]octan-6-yl hydrogen sulfate] | more active than Avibactam | more active than Avibactam
